Experimental data as given in publication PMC10253456, “Investigating the Contribution of Major Drug-Metabolising Enzymes to Possum-Specific Fertility Control” (International Journal of Molecular Sciences, 2023).
pIC50: −log10 of the molar value. Like-named read-outs stand apart in the source and are kept apart here.

How the values were obtained:
[1] = system: fathead minnows (Pimephales promelas); parameters: method as in PMID 17517636; settings: EE2 5–6 ng/L; cited from earlier work
mice = settings: EE2 5 µg/kg/day; cited from earlier work
[2] = system: UGT2B4, UGT2B7, UGT2B15, and UGT2B17; settings: cited from earlier work
[3] = system: UGT isoforms of the UGT1 and UGT2B families; parameters: method as in PMID 25008344; settings: pooled human liver and intestinal microsomes; read-out: concentration reducing glucuronidation of 4-methylumbelliferone by ~50% of the control; cited from earlier work
UGT2B [4] = settings: avian; for % of control (UGT2B4 catalytic activity at 2-fold IC50) / UGT2B4 catalytic activity at 2-fold IC50: compound at estimated 2-fold IC50
UGT2B (heading: UGT2B4) [5] = assay: in vitro; settings: avian (mallards and a swan), pH 7.4
CYP3A [6] = assay: CYP3A catalytic activity (erythromycin N-demethylation) in pooled human liver microsomes; settings: for CYP3A catalytic activity, % of the control: at both estimated IC50 and 2-fold IC50 values (ketoconazole 2.5 and 5 µM)
CYP3A [7] = assay: CYP3A catalytic activity (erythromycin N-demethylation) in possum liver microsomes; settings: for Percent control catalytic activity at estimated IC50: compounds without reported IC50 at 1 µM
UGT2B (heading: UGT2B4) [8] = assay: in vitro; settings: BALB/c, mouse, pH 7.4
CYP3A [9] = assay: CYP3A catalytic activity (erythromycin N-demethylation) in mouse liver microsomes; settings: for Percent control catalytic activity at estimated IC50: compounds without reported IC50 at 1 µM; for CYP3A catalytic activity, % of the control: at both estimated IC50 and 2-fold IC50 values (ketoconazole 2.5 and 5 µM)
UGT2B [10] = assay: p-nitrophenol glucuronidation activity in possum liver microsomes; format: biochemical, possum (Trichosurus vulpecula); settings: for % of control (UGT2B4 catalytic activity at 2-fold IC50) / UGT2B4 catalytic activity at 2-fold IC50: compound at estimated 2-fold IC50; for p-nitrophenol glucuronidation (UGT2B) activity, % of the control: at estimated IC50 and 2-fold IC50 values
UGT2B (heading: UGT2B4) [11] = assay: as above; format: biochemical, possum (Trichosurus vulpecula); settings: possum (Trichosurus vulpecula)
testosterone metabolism = system: testosterone metabolism; parameters: method as in PMID 19336903; settings: pooled human liver microsomes; cited from earlier work
UGT2B [12] = assay: p-nitrophenol glucuronidation activity in mouse liver microsomes; settings: for % of control (UGT2B4 catalytic activity at 2-fold IC50) / UGT2B4 catalytic activity at 2-fold IC50: mouse, compound at estimated 2-fold IC50
CYP3A [13] = settings: avian
CYP3A [14] = assay: CYP3A catalytic activity with midazolam and triazolam as substrates; settings: erythromycin vs midazolam and triazolam
[15] = system: cineole metabolism in wild possum liver microsomes; parameters: method as in PMID 12593759; settings: 5 µM ketoconazole; cited from earlier work
[16] = system: erythromycin N-demethylation; parameters: method as in PMID 15342469; settings: pooled human liver microsomes; read-out: concentration reducing erythromycin N-demethylation by ~50% of the control; cited from earlier work
UGT2B [17] = assay: p-nitrophenol glucuronidation activity in pooled human liver microsomes
UGT2B (heading: UGT2B4) [18] = assay: in vitro; settings: human, pH 7.4
[19] = compound at estimated 2-fold IC50 (5 µM where none reported)
[20] = possum liver microsomes, initial screen n=1
[21] = possum, compound at estimated 2-fold IC50 (5 µM where none reported)
[22] = mouse liver microsomes, initial screen n=1
[23] = mouse, compound at estimated 2-fold IC50 (5 µM where none reported)
[24] = pooled human liver microsomes, compound at estimated 2-fold IC50

C#C[C@]1(O)CC[C@H]2[C@@H]3CCc4cc(O)ccc4[C@H]3CC[C@@]21C [EE2, ethinylestradiol]
effect of exposure on fish [1]: feminisation of male fathead minnows | effect of developmental exposure on behaviour (mice): behavioural masculinisation

CC(C)(c1ccc(O)cc1)c1ccc(O)cc1 [bisphenol A]
type of inhibition ([2]; UGT2B4): competitive | type of inhibition ([2]; UGT2B7, UGT2B15, and UGT2B17): non-competitive

COc1cc([C@@H]2Oc3ccc([C@H]4Oc5cc(O)cc(O)c5C(=O)[C@@H]4O)cc3O[C@H]2CO)ccc1O [isosilybin B]
pIC50 [3]: 3.73

O=c1cc(-c2ccccc2)oc2cc(O)ccc12 [7-Hydroxyflavone]
% of control (UGT2B4 catalytic activity at 2-fold IC50) (UGT2B [4]): 92 % of control | UGT2B4 catalytic activity at 2-fold IC50 (UGT2B [4]): 0.38 ± 0.12 µmol/mg/min | activity at 30 min (UGT2B (heading: UGT2B4) [5]): 150% | CYP3A catalytic activity, % of the control (CYP3A [6]): > 83 % of the control | % of control (catalytic activity at 2-fold IC50) (CYP3A [6]; [19]): 95 % of control | Catalytic activity at 2-fold IC50 (CYP3A [6]; [19]): 0.61 nmol/mg/min | Percent control catalytic activity at estimated IC50 (CYP3A [7]; [20]): 81 percent control | Percent control catalytic activity at estimated 2-fold IC50 (CYP3A [7]; possum liver microsomes, initial screen n=1, compounds without reported IC50 at 5 µM): 78 percent control | CYP3A catalytic activity, % of the control (CYP3A [7]; possum, at both estimated IC50 and 2-fold IC50 values (or 1 and 5 µM)): > 83 % of the control | % of control (catalytic activity at 2-fold IC50) (CYP3A [7]; [21]): 95 % of control | Catalytic activity at 2-fold IC50 (CYP3A [7]; [21]): 0.38 ± 0.08 nmol/mg/min | reduced catalytic activity of possum CYP3A, % of the control (CYP3A [7]; possum, mainly at 5 µM or an estimated 2-fold IC50, not significantly different): ~ 35 % of the control | activity (UGT2B (heading: UGT2B4) [8]): 100% | Percent control catalytic activity at estimated IC50 (CYP3A [9]; [22]): 97 percent control | Percent control catalytic activity at estimated 2-fold IC50 (CYP3A [9]; mouse liver microsomes, initial screen n=1, compounds without reported IC50 at 5 µM): 97 percent control | CYP3A catalytic activity, % of the control (CYP3A [9]; mouse): > 83 % of the control | % of control (catalytic activity at 2-fold IC50) (CYP3A [9]; [23]): 90 % of control | Catalytic activity at 2-fold IC50 (CYP3A [9]; [23]): 0.40 ± 0.04 nmol/mg/min | % of control (UGT2B4 catalytic activity at 2-fold IC50) (UGT2B [10]): 101 % of control | UGT2B4 catalytic activity at 2-fold IC50 (UGT2B [10]): 3.92 ± 0.02 µmol/mg/min | activity at 30 min (UGT2B (heading: UGT2B4) [11]; pH 7.4, compound at estimated IC50, read-out: % of control (UGT2B4 catalytic activity at IC50)): 100% | pIC50 (testosterone metabolism): < 4.00 | % of control (UGT2B4 catalytic activity at 2-fold IC50) (UGT2B [12]): 101 % of control | UGT2B4 catalytic activity at 2-fold IC50 (UGT2B [12]): 2.55 ± 0.18 µmol/mg/min | CYP3A catalytic activity, % of the control (CYP3A [13]; at both estimated IC50 and 2-fold IC50 values (or 1 and 5 µM)): > 83 % of the control | % of control (catalytic activity at 2-fold IC50) (CYP3A [13]; [19]): 103 % of control | Catalytic activity at 2-fold IC50 (CYP3A [13]; [19]): 0.42 ± 0.07 nmol/mg/min

COc1cc([C@@H]2Oc3cc([C@H]4Oc5cc(O)cc(O)c5C(=O)[C@@H]4O)ccc3O[C@H]2CO)ccc1O [silybin B]
pIC50 [3]: 4.06

CC(=O)N1CCN(c2ccc(OCC3COC(Cn4ccnc4)(c4ccc(Cl)cc4Cl)O3)cc2)CC1 (stereo not drawn) [Ketoconazole]
p-nitrophenol glucuronidation (UGT2B) activity, % of the control (UGT2B [4]; at estimated IC50 and 2-fold IC50 values): did not significantly reduce UGT2B activity to less than 50% of the control | change in the inhibition of the CYP3A enzyme due to substrate choice (present study vs reported study) (CYP3A [14]): > 100 fold | formation of all hydroxycineole metabolites (9-, 3-, 7-hydroxycineole), % of the control [15]: approximately 25 % of the control | CYP3A catalytic activity, % of the control (CYP3A [6]): 80 % of the control | pIC50 [16]: 7.15 | Percent control catalytic activity at estimated IC50 (CYP3A [7]; [20]): 76 percent control | reduction of catalytic activity of possum CYP3A compared to the control (CYP3A [7]; possum, ketoconazole 5 µM, not statistically significant): approximately 27% | Percent control catalytic activity at estimated IC50 (CYP3A [9]; [22]): 78 percent control | CYP3A catalytic activity, % of the control (CYP3A [9]; mouse): < 50 % of the control | p-nitrophenol glucuronidation (UGT2B) activity, % of the control (UGT2B [17]): did not significantly reduce UGT2B activity to less than 50% of the control | p-nitrophenol glucuronidation (UGT2B) activity, % of the control (UGT2B [10]): did not significantly reduce UGT2B activity to less than 50% of the control | p-nitrophenol glucuronidation (UGT2B) activity, % of the control (UGT2B [10]; listed as ketoconazole): > 65 % of the control | p-nitrophenol glucuronidation (UGT2B) activity, % of the control (UGT2B [12]): did not significantly reduce UGT2B activity to less than 50% of the control

CC(C)=CCC[C@](C)(O[C@@H]1O[C@H](CO)[C@@H](O)[C@H](O)[C@H]1O)[C@H]1CC[C@]2(C)[C@@H]1[C@H](O)C[C@@H]1[C@@]3(C)CC[C@H](O)C(C)(C)[C@@H]3[C@@H](O)C[C@]12C [Ginsenoside F1]
% of control (UGT2B4 catalytic activity at 2-fold IC50) (UGT2B [4]): 99 % of control | UGT2B4 catalytic activity at 2-fold IC50 (UGT2B [4]): 0.66 ± 0.14 µmol/mg/min | activity (UGT2B (heading: UGT2B4) [18]): 101% | activity at 30 min (UGT2B (heading: UGT2B4) [5]): 110% | Percent control catalytic activity at estimated IC50 (CYP3A [7]; [20]): 120 percent control | activity (UGT2B (heading: UGT2B4) [8]): 132% | Percent control catalytic activity at estimated IC50 (CYP3A [9]; [22]): 82 percent control | % of control (UGT2B4 catalytic activity at 2-fold IC50) (UGT2B [17]; [24]): 100 % of control | UGT2B4 catalytic activity at 2-fold IC50 (UGT2B [17]; [24]): 4.01 µmol/mg/min | % of control (UGT2B4 catalytic activity at 2-fold IC50) (UGT2B [10]): 109 % of control | UGT2B4 catalytic activity at 2-fold IC50 (UGT2B [10]): 4.14 ± 0.18 µmol/mg/min | activity at 30 min (UGT2B (heading: UGT2B4) [11]; liver microsomes, pH 7.4, probe p-nitrophenol (0.5 mM final, from 50 µL of 5 mM in 500 µL), compound at estimated IC50, read-out: % of control (UGT2B4 catalytic activity at IC50)): 100% | % of control (UGT2B4 catalytic activity at 2-fold IC50) (UGT2B [12]): 157 % of control | UGT2B4 catalytic activity at 2-fold IC50 (UGT2B [12]): 4.36 ± 0.01 µmol/mg/min
